Usually IC50 stands for the concentration that inhibits the measured activity by half.

The target in assay [1] is Tubulin beta (Homo sapiens) (UniProt P68371+Q9H4B7+Q13509+P04350+Q3ZCM7+P07437+Q13885+Q9BVA1+Q9BUF5+A6NNZ2). Description: Binding affinity to beta-tubulin (unknown origin) by pull down assay. The class given is protein assay.
Assay [2] addresses T1, Hexokinase-2 (Homo sapiens) (UniProt P52789).
T1 sequence (whole entry): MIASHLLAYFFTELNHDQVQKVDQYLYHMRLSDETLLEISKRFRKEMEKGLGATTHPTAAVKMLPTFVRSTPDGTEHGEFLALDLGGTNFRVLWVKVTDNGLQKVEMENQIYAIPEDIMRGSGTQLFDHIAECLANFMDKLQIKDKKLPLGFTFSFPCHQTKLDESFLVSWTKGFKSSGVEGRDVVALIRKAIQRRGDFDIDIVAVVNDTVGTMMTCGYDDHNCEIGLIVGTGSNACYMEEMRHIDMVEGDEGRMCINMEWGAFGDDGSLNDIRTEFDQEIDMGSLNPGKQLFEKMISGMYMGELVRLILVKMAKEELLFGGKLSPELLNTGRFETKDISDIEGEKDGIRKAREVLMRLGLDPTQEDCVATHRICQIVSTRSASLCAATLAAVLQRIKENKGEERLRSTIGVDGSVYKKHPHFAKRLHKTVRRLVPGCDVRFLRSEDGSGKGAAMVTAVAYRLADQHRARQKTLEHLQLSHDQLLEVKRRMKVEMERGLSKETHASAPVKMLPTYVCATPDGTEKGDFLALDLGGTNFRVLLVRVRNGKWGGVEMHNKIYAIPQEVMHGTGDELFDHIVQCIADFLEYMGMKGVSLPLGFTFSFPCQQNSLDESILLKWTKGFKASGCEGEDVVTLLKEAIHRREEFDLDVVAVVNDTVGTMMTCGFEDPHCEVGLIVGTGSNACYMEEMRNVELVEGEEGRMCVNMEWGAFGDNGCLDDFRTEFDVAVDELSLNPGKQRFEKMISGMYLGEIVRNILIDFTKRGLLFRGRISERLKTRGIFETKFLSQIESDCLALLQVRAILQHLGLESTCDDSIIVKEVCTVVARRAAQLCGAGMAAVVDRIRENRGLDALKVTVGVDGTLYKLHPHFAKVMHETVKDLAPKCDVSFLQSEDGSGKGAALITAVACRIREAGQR
The assay is described as follows: Binding affinity to human HK2 transfected in Escherichia coli BL21 (DE) by pull down assay.

Assay [3] addresses T2, Tubulin (Homo sapiens) (UniProt P68371+Q9H4B7+P0DPH7+P68366+Q13509+Q71U36+P04350+Q3ZCM7+P07437+P68363+Q9BQE3+Q6PEY2+Q13885+Q9BVA1+Q9BUF5). The assay is described as follows: Disruption of microtubule network in human MDA-MB-231 cells assessed as punctate fiber structure at 1 uM incubated for 24 hrs by DAPI staining based fluorescence microscopic analysis. The class given is cell-based.

Assay [4] deals with T2, Tubulin (Homo sapiens). The assay is described as follows: Disruption of microtubule network in human MDA-MB-231 cells assessed as disorganized microtubule network at 1 uM incubated for 24 hrs by DAPI staining based fluorescence microscopic analysis. Type of assay: cell-based.
Assay [5] addresses T1, Hexokinase-2 (Homo sapiens). The assay is described as follows: Inhibition of human HK2 transfected in Escherichia coli BL21 (DE) incubated for 10 mins.
Assay [6] concerns the target T2, Tubulin (Homo sapiens). The assay is described as follows: Disruption of microtubule network in human MDA-MB-231 cells assessed as atrophy fiber structure at 1 uM incubated for 24 hrs by DAPI staining based fluorescence microscopic analysis. Type of assay: cell-based.
The test system of a further assay is MDA-MB-231. Description: Antiproliferative activity against human MDA-MB-231 cells assessed as reduction in cell proliferation incubated for 48 hrs by CCK-8 assay. The following applies: MDA-MB-231, 48 h. Type of assay: functional, cell-based. (Formazan colour is commonly taken as a measure of viable cells.)
Assay [7] deals with T2, Tubulin (Homo sapiens). Description: Disruption of microtubule network in human MDA-MB-231 cells assessed as reduced microtubule network at 1 uM incubated for 24 hrs by DAPI staining based fluorescence microscopic analysis. The class given is cell-based.
Assay [8] deals with T2, Tubulin (Homo sapiens). The assay is described as follows: Disruption of microtubule network in human MDA-MB-231 cells assessed as point-like fiber structure at 1 uM incubated for 24 hrs by DAPI staining based fluorescence microscopic analysis. The class given is cell-based.

Molecules are shown by their SMILES. The source made the active and inactive calls. The rule behind the calls is not given here.

As to `O=C1N[C@H]2[C@H](CS[C@H]2CCCCC(=O)N2CCN(c3ccc4c(c3)c(/C=C/C(=O)c3cccnc3)cn4S(=O)(=O)c3ccc([N+](=O)[O-])cc3)CC2)N1`, the outcome in [1] and in assay [2] was Active.

As for `COc1ccc(CCc2cc(OC)c(OC)c(OC)c2)cc1O`, the result at Tubulin (Homo sapiens) [3], on Tubulin (Homo sapiens) [4], on Tubulin (Homo sapiens) [6], at Tubulin (Homo sapiens) [7] and at Tubulin (Homo sapiens) [8] was Active. Also, in assay [5], the inhibition result was “inactive”. Also, the half-maximal inhibitory concentration (IC50) with MDA-MB-231 amounted to 1940 nM.

Consider `COc1cc2c(c(OC)c1OC)-c1ccc(OC)c(=O)cc1[C@@H](NC(C)=O)CC2` [COLCHICINE], for which, in assay [5], the inhibition entry is “inactive”. Also, the IC50 in the assay on MDA-MB-231 came out at 2200 nM.

The values above are taken from ChEMBL document CHEMBL6096661, “Synthesis, biological evaluation and mechanism study of a novel indole-pyridine chalcone derivative as antiproliferative agent against tumor cells through dual targeting tubulin and HK2” (Eur J Med Chem, 2025).
